From PMC8695410 (RSC Advances, 2021)

Assays:
FXa = FXa (Homo sapiens, UniProt P00742); test: In vitro chromogenic factor Xa inhibitory assay; assay type: biochemical
thrombin = conditions: cited from earlier work; for IC50: thrombin inhibitors

Sequence of FXa (P00742 235-488 limits assumed): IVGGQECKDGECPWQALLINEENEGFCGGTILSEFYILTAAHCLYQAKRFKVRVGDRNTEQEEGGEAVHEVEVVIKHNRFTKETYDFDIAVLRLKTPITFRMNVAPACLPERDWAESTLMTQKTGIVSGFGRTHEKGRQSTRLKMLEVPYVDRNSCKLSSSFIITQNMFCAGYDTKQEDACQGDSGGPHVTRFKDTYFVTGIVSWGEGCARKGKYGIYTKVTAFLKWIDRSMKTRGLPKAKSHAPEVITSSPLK
Sequence of FXa (P00742 41-179 partner limits assumed): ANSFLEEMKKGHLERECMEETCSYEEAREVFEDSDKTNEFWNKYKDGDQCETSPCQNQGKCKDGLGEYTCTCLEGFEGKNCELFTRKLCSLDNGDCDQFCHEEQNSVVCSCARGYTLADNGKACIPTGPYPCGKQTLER

Compound | FXa inhibitory activity (in words) (FXa) | IC50 (FXa) | thrombin inhibitory effects (in words) (thrombin) | IC50 (thrombin)
O=c1cc(-c2ccc(O)cc2)oc2cc(O)ccc12 [Compound 1, 7,4′-dihydroxyflavone] | Moderate activity | 67.1 ± 1.75 µM |  | 
CC1(C)C=Cc2c(ccc3c2OC[C@@H](c2ccc(O)cc2O)C3)O1 [Compound 3, 3-R-glabridin] | Moderate activity | 35.3 ± 1.03 µM |  | 
COc1ccc(-c2coc3cc(O)ccc3c2=O)cc1 [Compound 2, 7-hydroxy-4′-methoxyisoflavone] |  | 17.7 ± 0.28 µM |  | 
isoliquiritigenin-4-O-β-D-apiosylglucoside [Compound 10] | very weak effects |  |  | 37.9 µM

Second part, led by results:

FXa inhibitory activity (in words) (FXa) | IC50 (FXa) | Compound | thrombin inhibitory effects (in words) (thrombin) | IC50 (thrombin)
 | 5.15 ± 0.09 µM | O=C1C[C@@H](c2ccc(O[C@@H]3O[C@H](CO)[C@@H](O)[C@H](O)[C@H]3O)cc2)Oc2cc(O)ccc21 [Compound 5, liquiritin] | negligible | 
Moderate activity | 74.4 ± 1.29 µM | O=C(/C=C/c1ccc(O)cc1)c1ccc(O)cc1O [Compound 4, isoliquiritigenin] |  | 17.9 µM
 | 10.4 ± 0.52 µM | COc1c(/C=C/C(=O)c2ccc(O)c(O)c2)ccc(O)c1O [Compound 7, 3,3′,4,4′-tetrahydroxy-2-methoxychalcone] |  | 
very weak effects |  | liquiritigenin-4′-O-β-D-apiosyl(1-2)-β-D-glucoside [Compound 8] |  | 
